We go through 5 molecules from US5936120A, “Deoxygossylic compounds” (University of New Mexico, priority 1997, dated 1999).

“Also recorded” adds a separate entry of the source.

Data set [1] concerns H9/HIV-IIIB in HT46c cells. Put plainly: Anti-HIV assay in vitro: inhibition of HIV replication, focal immunoassay (reduction in foci). It is filed as cell-based, HIV-1. Conditions: for reduction in foci at 5 μM: GIL compared with BDGA; for anti-HIV activity: in words, tested at 0.01, 0.1, 1.0, 5.0 and 20 μM. As for the experimental part: 1,1'-bisdeoxygossypol (BDG), 1,1'-bisdeoxygossylic acid (BDGA), 8-deoxyhemigossypol (DHG) and 8-deoxyhemigossylic acid (DHGA) were synthesized and tested for their ability to inhibit the replication of HIV in vitro. The EC50 for BDGA was <1 μM and its threshold cytotoxicity was approximately 20 μM. […] Like BDGA, the Ec50 for GIL was <1 μM. […] BDG, on the other hand, was ineffective at 1 μM and destroyed >80% of the cell monolayer at 5 μM.
(§1) The anti-HIV assay used was based on a published procedure (J.Virol. 62:3779-3788, 1988) using HT46c (HeLaT4+) cells as host cells for the H9/HIV-III8 strain of the HIV-1 virus. The cells were seeded into 6-well plates, 5×10^4 cells/well, in RPMI 1640 with 10% FBS and allowed to attach overnight. After treatment of the wells with DEAE-dextran, stock virus was added at a concentration that produces 100 -200 foci/well on day 3 in positive control wells. Test compounds were added, and plates incubated for 3 days at 37° C., 5% CO2. Monolayers were fixed with methanol and wells analyzed with a focal immunoassay (FIA). The primary reagent used in the FIA was a polyclonal antibody preparation of sera from AIDS patients. The secondary reagent was a goat anti-human IgG antibody tagged with horseradish peroxidase. The substrate was 3-amino-9-ethylcarbazole in sodium acetate buffer with hydrogen peroxide. Each compound was tested at concentrations of 0.01, 0.1, 1.0, 5.0 and 20 μM. GIL was tested as a standard for comparison.

Data set [2] concerns HT46c (HeLaT4+) cells. The experiment in a line: Cytotoxicity in the anti-HIV assay: detectable changes in cell morphology or loss of monolayer adherence to the culture plate. In kind it is cell-based. Conditions: for cytotoxicity: in words. As for the experimental part: (§2) 1,1'-bisdeoxygossypol (BDG), 1,1'-bisdeoxygossylic acid (BDGA), 8-deoxyhemigossypol (DHG) and 8-deoxyhemigossylic acid (DHGA) were synthesized and tested for their ability to inhibit the replication of HIV in vitro.
as §1, with “After” for “The anti-HIV assay used was based on a published procedure (J.Virol. 62:3779-3788, 1988) using HT46c (HeLaT4+) cells as host cells for the H9/HIV-III8 strain of the HIV-1 virus. The cells were seeded into 6-well plates, 5×10^4 cells/well, in RPMI 1640 with 10% FBS and allowed to attach overnight. After”

In data set [3] the test system is HIV. Conditions: previously found, in vitro; cited from earlier work.
The conditions of data set [4]: previously shown in similar assays (Pharmacol.Res.); cited from earlier work.
Data set [5] in a line: Cytotoxicity in the anti-HIV assay: detectable changes in cell morphology or loss of monolayer adherence to the culture plate. In kind it is cell-based. As to conditions: human, ht46c cells; below threshold = no detectable changes in cell morphology or loss of monolayer adherence. As to the method:
as §2
as §1, with “After” for “The anti-HIV assay used was based on a published procedure (J.Virol. 62:3779-3788, 1988) using HT46c (HeLaT4+) cells as host cells for the H9/HIV-III8 strain of the HIV-1 virus. The cells were seeded into 6-well plates, 5×10^4 cells/well, in RPMI 1640 with 10% FBS and allowed to attach overnight. After”

Turning to `Cc1cc2c(C(C)C)c(O)c(O)c(C(=O)O)c2cc1-c1cc2c(C(=O)O)c(O)c(O)c(C(C)C)c2cc1C` [BDGA, 6,6',7,7'-Tetrahydroxy-3,3'-dimethyl-5,5'-bis(1-methylethyl)[2,2'-binaphthalene]-8,8'-dicarboxylic Acid], in data set [1], the “reduction in foci at 5 μM” value is given as “same reduction in foci” and the anti-HIV activity entry was “approximately as effective as GIL”. For the same molecule, the “toxicity at 5.0 μM” value in data set [2] is given as “No toxicity was noted”. Further, the “monolayer destruction at 20 μM” value in data set [2] (20 μM) is reported as “Some signs of monolayer destruction”.
For `Cc1cc2c(C(C)C)c(O)c(O)c(C=O)c2cc1-c1cc2c(C=O)c(O)c(O)c(C(C)C)c2cc1C` [BDG, 6,6',7,7'-Tetrahydroxy-3,3'-dimethyl-5,5'-bis(1-methylethyl)[2,2'-binaphthalene]-8,8'-dicarboxaldehyde], the “anti-HIV activity at 1 μM” value in data set [1] (1 μM) is given as “ineffective”. Further, in data set [1], the anti-HIV activity entry is recorded as “less effective against HIV”. The “destruction of the cell monolayer at 5 μM” value in data set [2] (5 μM) was > 80%. The cytotoxicity result in data set [2] is “much more cytotoxic than BDGA”.
`Cc1cc2c(C(C)C)c(O)c(O)c3c2c(c1-c1c(C)cc2c(C(C)C)c(O)c(O)c4c2c1OC4=N)OC3=N` [GIL, gossylic iminolactone]: the “reduction in foci at 5 μM” value in data set [1] is on record as “same reduction in foci”. Moreover, the “anti-HIV activity relative to gossypol” value in data set [3] was “more active; also recorded: more effective than gossypol”. The “cytotoxicity relative to gossypol” value in data set [4] is on record as “less cytotoxic than gossypol”. For the same molecule, in data set [2], the “toxicity at 5.0 μM” value is reported as “No toxicity was noted”.
For `Cc1ccc2c(C=O)c(O)c(O)c(C(C)C)c2c1` [DHG, 2,3-dihydroxy-6-methyl-4-(1-methylethyl)-1-naphthaldehyde], the anti-HIV activity entry in data set [1] is listed as “some anti-HIV activity; also recorded: less active”. The cytotoxicity entry in data set [2] was “more cytotoxic”. For the same molecule, the MCC in data set [5] was determined as 54 µM.
`Cc1ccc2c(C(=O)O)c(O)c(O)c(C(C)C)c2c1` [DHGA, 2,3-dihydroxy-6-methyl-4-(1-methylethyl)-1-naphthoic Acid]: the “effect on viral replication at 20 μM” value in data set [1] (even at 20 μM) is recorded as “no observable effect on viral replication”. Also, in data set [1], the anti-HIV activity result is “ineffective against HIV”. For the same molecule, in data set [2] (even at 20 μM), the “effect on cell morphology at 20 μM” value is reported as “no observable effect on viral replication or cell morphology”. In addition, in data set [2], the cytotoxicity result is reported as “very low cytotoxicity”.
